Source: patent US20240285627A1, “DRUG COMBINATION OF FAK INHIBITOR AND IMMUNOGENIC CELL DEATH INDUCER AND USE THEREOF” (INXMED (NANJING) CO., LTD., priority 2022, published 2024)
pIC50: −log10 of the molar value. Where “and” joins values, the source holds several entries; their conditions need not be identical. Identical values can stand only once.

Columns and labels:
[1] = tested on: Mouse colon cancer CT26 cells; test: Induction of immunogenic cell death targets by Crizotinib and IN10018 in CT26 cells (Example 7); type: cell-based; settings: CT26, 48 hours; IN10018 5 μM, Crizotinib 3 μM
Experimental: CT26 cells were cultured in monolayer in vitro, and the culture conditions were: RPMI-1640 medium with 10% fetal bovine serum, 37° C. and 5% CO2. Trypsin was used for routine digestion and passage treatment two or three times a week. When the cells were in exponential growth period and the adherent confluence reached 80%-90%, the cells were collected and plated.
CT26 cells were digested with trypsin, then collected and counted. According to the counting results, the cells were diluted with RPMI-1640+10% FBS, and the dilution concentration was 50,000 cells per ml. Then, the cells were plated on 24-well culture plates, and 1 ml of cell suspension (50,000 cells) was laid in each well. After plating, the cells were cultured in 37° C. and 5% CO2 incubator. […]
After the cells were washed twice with flow buffer (DPBS+2% FBS), the cells in each group were divided into two parts on average, one of which was added with 0.5 μl of AF647 anti-Calreticulin antibody in each well, then mixed well, and incubated in the dark for 20 minutes at 4° C. […] The cells were cultured at room temperature in the dark for 15 minutes, and then analyzed by flow cytometry.
Data analysis: After the assay, the cell positive rate was analyzed by Flowjo(V10) software.

[2] = tested on: mouse colon cancer CT26-KRAS G12C allograft tumor; test: In vivo pharmacodynamic study, BALB/c mouse subcutaneous allograft tumor model of CT26-KRAS G12C cells (Example 8)
Experimental: Species: mice; Strain: BALB/c mice; Age and weight: 6-8 weeks old, weighing: 18-22 g; Gender: female; Quantity: 49 (excluding remaining mice after grouping); Supplier: LINGCHANG BIOTECH.
Mouse colon cancer CT26-KRAS G12C cells were cultured in monolayer in vitro. The culture conditions were RPMI1640 medium with 10% fetal bovine serum, 1% penicillin/streptomycin/amphotericin B, and 37° C. 5% CO2 incubator. Trypsin-EDTA was used twice a week for routine digestion and passage. When the cell saturation was 80%-90% and the number reached the requirements, the cells were collected, counted and inoculated.
0.1 mL (0.3×10^6 cells) of CT26-KRAS G12C cells were subcutaneously inoculated on the right back of each mouse, and grouping and drug administration began when the average tumor volume reached about 55 mm^3.
The diameter of tumor was measured three times a week with vernier caliper. The formula for calculating the tumor volume is: V=0.5×a×b^2, where a and b represent the long and short diameters of the tumor respectively.
The anti-tumor effect of the compound was evaluated by TGI (%) or relative tumor proliferation rate T/C(%). The relative tumor proliferation rate is T/C(%)=TRTV/CRTV×100% (TRTV: RTV in treatment group; CRTV: RTV in negative control group). According to the results of tumor measurement, the relative tumor volume (RTV) was calculated, and the calculation formula is RTV=Vt/V0, where V0 is the average tumor volume measured at the time of grouping and drug administration (i.e., D0), Vt is the average tumor volume measured at a certain time, and data on the same day were used for TRTV and CRTV.
TGI (%) reflects the tumor growth inhibition rate. TGI (%)=[1−(average tumor volume at the end of administration in a certain treatment group-average tumor volume at the beginning of administration in the treatment group)/(average tumor volume at the end of administration in solvent control group-average tumor volume at the beginning of administration in the solvent control group)]×100%.
Statistical analysis included the mean and standard error (SEM) of tumor volume at each time point in each group (see the specific data in Table 7). Based on the tumor volume data on the 19th day after administration, statistical analysis was performed to evaluate the differences between groups. T-test was used to analyze the comparison between two groups, and one-way ANOVA was used to analyze the comparison between three or more groups. If there was significant difference in F value, Games-Howell method was used for the test. If there was no significant difference in F value, Dunnet (2-sided) method was used for analysis. All data were analyzed by SPSS 17.0. P<0.05 was considered to have significant difference.

[3] = tested on: Mouse lung cancer KPL; test: Proliferation of KPL cells, CCK8, MRTX1133 with or without IN10018 (Example 5); type: cell-based; settings: 72 hours, MRTX1133 alone
Experimental: Mouse lung cancer KPL (Insitute of Biochemistry and Cell Biology) were cultured with RPMI-1640 (Shanghai Basalmedia, classification number: L210KJ, batch number: F210916)+10% FBS (Gibco, classification number: 10099-141c, batch number: 2158737cp) and passaged twice. When the cells were in good condition, the culture solution was placed in a 96-well plate with 3000 cells/well. After the cells were spread for 24 hours, a culture medium containing MRTX1133 (SuperLan Chemical Co., Ltd., classification number: P2621928-55-8, batch number: 131005) was added. 10 drug action concentrations were set, wherein the first concentration was 30 μM, which was serially diluted 5 times, and the last concentration was a control with a drug concentration of 0. Each drug concentration was set in triplicate. At the same time, another group of cells was established with the same drug concentration as the above method. The difference was that 10 μM IN10018 was added to each well. The drugs were mixed and the mixture was cultured in a 5% CO2 incubator at 37° C. for 72 hours.
After 72 hours of drug action, the cells were observed under a microscope, and 10 μl of CCK8 detection reagent (Cellorlab, classification number: CX001M, batch number: 2571100) was added to each well. […] Then the plate was read with a microplate reader OD450 ([…]).

[4] = Day 19, D-1553 5 mg/kg PO QD, IN10018 25 mg/kg PO QD, INX0082 10 mg/kg IP BIW

Row | SMILES | cell state under a microscope (cell death; cell viability) [1] | Tumor volume (Day 0) ([2]; Day 0, at grouping, Average ± SEM, n = 7) [mm^3] | T/C (%) (Day 19) [2, 4] | TGI (%) (Day 19) [2, 4] | Tumor volume (Day 19) ([2]; Day 19, D-1553 5 mg/kg PO QD, IN10018 25 mg/kg PO QD, INX0082 10 mg/kg IP BIW, Average ± SEM, n = 7) | anti-tumor effect compared with the solvent control group ([2]; Day 19, D-1553 5 mg/kg, IN10018 25 mg/kg, INX0082 10 mg/kg) | pIC50 [3]
1 | COc1cc(C(=O)NC2CCN(C)CC2)c(F)cc1Nc1ncc(C(F)(F)F)c(Oc2cccc3c2C(=O)N(C)C3)n1 [IN10018] | better | 55 ± 3 | 74.7 | 23.4 | 1352 mm^3 and 1352 ± 284 mm^3 | no anti-tumor effect | –
2 | C#Cc1c(F)ccc2cc(O)cc(-c3ncc4c(N5CC6CCC(C5)N6)nc(OC[C@@]56CCCN5C[C@H](F)C6)nc4c3F)c12 [MRTX1133] | – | – | – | – | – | – | 5.75
